Results published in patent US9730928B2, “Trizol-1-OL analogs anti-retroviral latency drugs” (priority 2013, dated 2017).
Entries after “also recorded” stand apart in the source; their conditions may differ.

Columns and labels:
latent HIV-1 [1] = test: Blocking of viral reactivation by chemical inhibitors of known signaling pathways; type: cell-based; details: reactivation stimulus HOAt
Excerpt: The ability of chemical inhibitors of known signaling pathways to block viral reactivation mediated by HOAt was examined (FIG. 4A). […] Activation of JAK kinases lead to the activation of the transcription factors STATs. Specific inhibitors of STAT3 and STAT5 were thus also studied.

pSTAT5 [2] = test: pSTAT5 levels 48 h after IL-2 plus derivatives, flow cytometer; type: cell-based; details: with IL-2, 48 h
Procedure: Cells were treated with IL-2 and several derivatives of HOAt. Levels of pSTAT5 were measured 48 h later by flow cytometer.

latent HIV-1 [3] = test: Reactivation of latent HIV-1 in latently infected cultured TCM (GFP / p24Gag by flow cytometry); type: cell-based; details: for ability to induce viral reactivation compared to the original hit HOBt: panel of 7 derivatives of HOBt (FIG. 2D); for activation of latent HIV-1 (viral reactivation): 72 hours after stimulation, GFP or p24Gag by flow cytometry
Excerpt: A novel primary cell model for the study of HIV-1 latency was adapted so as to be suitable for high-throughput screening (HTS) of new compounds that may reactivate HIV-1 from its latency state (Bosque and Planelles, 2009; Bosque and Planelles, 2010; and patent application: Methods and compositions relating to viral latency, Planelles V, Basque A, U.S. Patent Application 2010/0291067 A1, November 2010).
To facilitate HTS, the nef gene was replaced with that encoding the green fluorescent protein (GFP). It was confirmed that deletion of nef has no effect in latency/reactivation (Bosque and Planelles, 2009) and that using GFP provides a faster, more economical, and equally sensitive, as compared to intracellular p24 detection, readout.
The reactivation experiments were modified to be performed in 96-well plates, utilizing 100,000 cells per well. After reactivation, flow cytometric analysis was performed with Becton Dickinson FACSCanto II with a High Throughput Sampler (HTS) for microtiter plates that is available through the Flow Cytometry Core Facility at the University of Utah. It takes about 30 minutes to analyze a plate, when acquiring 10,000 cells per well. Analysis for each well includes (a) green fluorescence as a direct indicator of viral reactivation; and (b) forward and side scatter as general measures of cell morphology, which is a gross indication of viability.
Latently infected cells were generated using healthy, uninfected DONOR 78 cells that were infected with DHIV virus. Reactivation was monitored by analysis of GFP by Flow Cytometry 72 hours after stimulation. Beads coated with anti-CD3/anti CD28 (CD3/CD28) were used as a positive reactivation stimulus. Reactivation was done in a 96-well plate round bottom. […] This compound is an intermediate en route to synthesis of a cyclic peptide isolated from a tunicate.
HPLC was used to generate 20 fractions based on elution time using a gradient from 10-100% acetonitrile in 0.1% formic acid using a Phenomenex Kinetic C18 50×2.10 mm column ([…], 100 A). The ability of these fractions to activate HIV-1 was tested and compared in parallel with the original hit. […] Further fractionation of C7 was performed and each fraction tested at the concentration indicated in the graph (FIG. 1D). […] Finally, HOBt was tested at different concentrations and analyzed on either Day 3, Day 5, or Day 7.

STAT5 [4] = test: Nuclear localization of STAT5; type: cell-based, human; details: IL-2 alone or in the presence of HOAt
Excerpt: Nuclear translocation of STAT5 is required for its transcriptional activity. […] Histone H3 and alpha Tubulin were used as controls for purity of the fractionation.

latent HIV-1 [5] = test: Viral reactivation mediated by other stimuli (PMA, ionomycin, SAHA); type: cell-based; details: HOAt added to each of three stimuli
cultured TCM = test: T cell proliferation of cultured TCM; type: cell-based, human; details: dose dependent incubation
Procedure: (§1) In order to determine whether HOAt is inducing T cell proliferation, culter TCM were incubated with HOAt in a dose dependent manner. […] It has been shown previously that both cultured TCM and ex vivo TCM express low levels of CD25 (Bosque et al. 2011). This level is increased by 37 times after TCR engagement with αCD3/αCD28, measured as mean intensity of fluorescence (values between parenthesis, FIG. 6D).

STAT5 [6] = test: STAT5 phosphorylation by flow cytometry in cultured TCM; type: cell-based, human
Procedure: The levels of STAT5 phosphorylation were analyzed by flow cytometry after incubating cultured TCM with HOAt, IL-2, or a combination of both, during a 24 h period (FIG. 4B).

[7] = test system: memory T cells / cultured TCM; test: T cell activation (activation markers CD25 and CD69); type: cell-based, human; details: for increase of CD25 levels (mean intensity of fluorescence): maximum concentration used (compound), TCR engagement (αCD3/αCD28)
Excerpt: (§2) Memory cells were generated from 3 different donors and treated with either HOBt or anti-CD3/CD28 to analyze the effect of HOBt on T cell activation (FIG. 6A). Analysis of T cell activation was done by analyzing the upregulation of the activation markers CD25 and CD69 three days post activation. […] Analysis of T cell differentiation was done by analyzing the levels of CCR7 and CD27 three days post activation (FIG. 6B).
as §1
CD69 upregulation is concomitant with T cell activation.

latent HIV-1 [8] = test: Reactivation of latent HIV-1 in absence or presence of γc-cytokines; type: cell-based; details: for viral reactivation in the presence of IL-2, IL-4, and IL-15: as worded; for viral reactivation in the presence of IL-2, IL-7 and IL-5: as worded in FIG. 3 legend b37; for viral reactivation in combination with IL-4: combined with IL-4; for viral reactivation in combination with IL-9 and IL-21: combined with IL-9 or IL-21; for viral reactivation in the absence of γc-cytokines: no cytokines, p24Gag 72 hours; for viral reactivation by cytokine alone: cytokine by itself, compared with absence of cytokines
Procedure: Latently infected cells were generated using healthy, uninfected DONOR 78 cells that were infected with DHIV virus. Reactivation was monitored by analysis of p24Gag by Flow Cytometry 72 hours after stimulation.

pSTAT5 [9] = test: pSTAT5 immunoprecipitation and western blot; type: cell-based; details: 30 min pretreatment, then IL-2 for 30 min
Procedure: STAT5 was immunoprecipitated with antibodies specific for the phosphorylated protein and western blot was performed against pSTAT5.

SOCS3 = test: Expression levels of SOCS3, a target gene for STAT5; type: cell-based, human; details: IL-2 and HOAt, 24 h post-treatment
Procedure: STAT5 is a transcriptional activator of multiple genes. To address whether HOAt will increase the transcription of any STAT5 target genes, the expression levels of SOCS3, a target gene for STAT5, were analyzed.

latent HIV-1 [10] = test: Reactivation of latent HIV-1 in cells isolated from aviremic HIV-1 patients; type: cell-based; details: cells of two patients suppressed with antiretroviral; versus DMSO control
Excerpt: Briefly, cells for two patients suppressed with antiretroviral were isolated and treated with either DMSO (Control), HOAt or the mitogen PHA.

memory T cells = test: T cell differentiation (CCR7 and CD27 levels); type: cell-based, human; details: three days post activation
Excerpt: as §2

## Cc1ccc2nc(NCCN)c3ncc(C)n3c2c1 [BMS345541]
Latent HIV-1 [1]
  effect on viral reactivation induced by HOAt: did not have a significant effect

## O=c1c2ccccc2nnn1O [HO-DhBt, 3-hydroxybenzo[d][1,2,3]triazin-4-(3H)-one]
pSTAT5 [2]
  maintenance of pSTAT5 levels: maintain pSTAT5 levels in a dose dependent manner
Latent HIV-1 [3]
  ability to induce viral reactivation compared to the original hit HOBt: able to induce viral reactivation in a dose dependent manner and with increased efficiency; also recorded: increased ability to induce viral reactivation in a dose dependent manner

## On1nnc2cccnc21 [HOAt, 1-hydroxy-7-azabenzotriazole]
pSTAT5 [2]
  maintenance of pSTAT5 levels: maintain pSTAT5 levels in a dose dependent manner
STAT5 [4]
  pSTAT5 and STAT5 levels in the nucleus: increased in the nucleus; also recorded: increases the nuclear localization of STAT5
Latent HIV-1 [5]
  viral reactivation mediated by PMA, ionomycin and SAHA: able to increase viral reactivation mediated by these three stimuli; also recorded: increases viral reactivation
Cultured TCM
  T cell proliferation: only induces some degree of cell proliferation at the higher concentration tested
STAT5 [6]; HOAt alone
  STAT5 phosphorylation, agent alone over untreated cells: able to induce an increase in STAT5 phosphorylation over untreated cells
STAT5 [6]; IL-2 and HOAt
  STAT5 phosphorylation, combination with IL-2: drastic increase in STAT5 phosphorylation
STAT5 [6]; IL-2 and HOAt, 24 hrs
  STAT5 phosphorylation after 24 hrs, combination with IL-2: do not significantly decrease
[7]; CD69 upregulation
  levels of T cell activation (CD69) compared with αCD3/αCD28: slightly increases the levels of T cell activation
[7]
  increase of CD25 levels (mean intensity of fluorescence): 1.4 times
Latent HIV-1 [8]
  viral reactivation in the presence of IL-2, IL-4, and IL-15: dramatically increase viral reactivation
  viral reactivation in the presence of IL-2, IL-7 and IL-5: increase viral reactivation
  viral reactivation in combination with IL-4: induced significant viral reactivation; also recorded: did induce significant viral reactivation
  viral reactivation in combination with IL-9 and IL-21: did not have an effect in viral reactivation
  viral reactivation in the absence of γc-cytokines: significantly reactivate HIV-1 latency
pSTAT5 [9]
  levels of pSTAT5 in the inputs: increases the levels of pSTAT5
SOCS3
  levels (transcription) of SOCS3: increase the levels of SOCS3; also recorded: increases the transcription of SOC3S
Latent HIV-1 [3]
  activation of latent HIV-1 (viral reactivation): able to reactivate HIV-1 latency; also recorded: activates HIV-1 latent cells; also recorded: activate latent HIV-1; also recorded: reactivate HIV-1 latency in a dose dependent manner
  ability to induce viral reactivation compared to the original hit HOBt: more potent analog than the original hit; also recorded: increased activity compared to HOBt
Latent HIV-1 [10]
  regrowth of latent viruses in patient cells in vitro: can induce regrowth of latent viruses in both patients

## On1nnc2ccccc21 [HOBt, 1-hydroxybenzotriazole]
pSTAT5 [2]
  maintenance of pSTAT5 levels: maintain pSTAT5 levels in a dose dependent manner
Cultured TCM
  T cell proliferation: only induces some degree of T cell proliferation at the higher concentration tested
[7]
  increase of CD25 levels (mean intensity of fluorescence): 1.4 times
[7]; three days post activation, 3 donors
  general T cell activation (upregulation of CD25 and CD69): does not induce general T cell activation
Latent HIV-1 [8]
  viral reactivation in the presence of IL-2, IL-4, and IL-15: dramatically increase viral reactivation
  viral reactivation in the presence of IL-2, IL-7 and IL-5: increase viral reactivation
  viral reactivation in combination with IL-4: induced significant viral reactivation; also recorded: did induce significant viral reactivation
  viral reactivation in combination with IL-9 and IL-21: did not have an effect in viral reactivation
  viral reactivation in the absence of γc-cytokines: significantly reactivate HIV-1 latency
Memory T cells
  T cell differentiation (loss of CCR7 and CD27 expression): does not induce T cell differentiation
Latent HIV-1 [3]
  activation of latent HIV-1 (viral reactivation): activate latent HIV-1 in a dose-dependent manner; also recorded: able to reactivate HIV-1 latency; also recorded: reactivate HIV-1 latency in a dose dependent manner; also recorded: activates HIV-1 latent cells
Latent HIV-1 [3]; analyzed on Day 3, Day 5, or Day 7
  kinetics of HIV-1 latency reactivation compared with anti-CD3/CD28: slower kinetics

## O=C(N/N=C/c1coc2ccccc2c1=O)c1cccnc1 [STAT5 inhibitor]
Latent HIV-1 [1]
  effect on viral reactivation induced by HOAt: completely abrogates viral reactivation; also recorded: completely prevent activation of latent HIV-1 by HOAt

## IL-9: γc-cytokine
Latent HIV-1 [8]
  viral reactivation by cytokine alone: did not have an effect in viral reactivation; also recorded: no effect

## IL-21: γc-cytokine
Latent HIV-1 [8]
  viral reactivation by cytokine alone: did not have an effect in viral reactivation; also recorded: no effect

B1: IL-4: γc-cytokine (protein, UniProt P05112 25-153, looked up)
Interleukin-4: HKCDITLQEIIKTLNSLTEQKTLCTELTVTDIFAASKNTTEKETFCRAATVLRQFYSHHEKDTRCLGATAQQFHRHKQLIRFLKRLDRNLWGLAGLNSCPVKEANQSTLENFLERLKTIMREKYSKCSS
Latent HIV-1 [8]
  viral reactivation by cytokine alone: not able to induce significant viral reactivation by itself; also recorded: did not induce viral reactivation by itself

B2: IL-7: γc-cytokine (protein, UniProt P13232 26-177, looked up)
Interleukin-7: DCDIEGKDGKQYESVLMVSIDQLLDSMKEIGSNCLNNEFNFFKRHICDANKEGMFLFRAARKLRQFLKMNSTGDFDLHLLKVSEGTTILLNCTGQVKGRKPAALGEAQPTKSLEENKSLKEQKKLNDLCFLKRLLQEIKTCWNKILMGTKEH
Latent HIV-1 [8]
  viral reactivation by cytokine alone: trend towards increasing viral reactivation
